One experiment deals with IL-17A gene expression. The experiment in a line: Effect on IL-23-induced cytokine expression in mice. It counts as in vivo, Balb/c mice. To be noted: Mus musculus; dose 30 mg/kg oral, 30 min before and 8 hr after IL-23; versus the negative control group; read-out: Percent inhibition of IL-17A gene expression. The protocol:
Effect on IL-23-induced Cytokine Expression in Mice
A mouse IL-23 solution (500 ng/10 μL, prepared by Takeda Pharmaceutical Company Limited) or PBS (10 μL, negative control group) was administered intradermally in the ear of Balb/c mice (Charles River Japan, male, 7 weeks old). Twenty-four hr after administration, the ear was resected under isoflurane anesthesia. The test compound was suspended in 0.5% methylcellulose and administered orally 30 min before and 8 hr after IL-23 administration.
RNA extraction from the ear tissue and quantitative PCR were performed as follows. Specifically, ear tissue 5 mm in diameter was punched from an area of the resected ear centering on the IL-23 injection site, and the tissue was immersed in RNAlater (QIAGEN) for at least 18 hr. The RNAlater-treated ear tissue was homogenized in 350 μL of RLT buffer (RNeasy mini kit, QIAGEN) and treated (55° C., 10 min) with Proteinase K (QIAGEN). Total RNA was then extracted according to the RNeasy mini kit protocol. The RNA thus obtained was then reverse transcribed into cDNA using the High-Capacity RNA-to-cDNA kit (Applied Biosystems), and the amount of each cytokine expressions was measured by real-time PCR (Viia7™, Applied Biosystems). The PCR buffer used was TaqMan Fast Advanced Master Mix (Applied Biosystems), and TaqMan Gene Expression Assays (Applied Biosystems) Mm00439618 ml (IL-17A) and 4352341E (β-actin) were used for cytokine gene detection. The IL-17A gene expression level was normalized to the R-actin gene expression level, and the percent inhibition of IL-17A gene expression with the test compound was then calculated.
The results obtained with the above-described method (percent inhibition of IL-17A gene expression with oral administration of the test compound) are shown in Table 5.

Experiment [1] has as its target T1, RORγt (Homo sapiens, UniProt P51449).
T1 sequence (P51449 1-497 isoform P51449-2): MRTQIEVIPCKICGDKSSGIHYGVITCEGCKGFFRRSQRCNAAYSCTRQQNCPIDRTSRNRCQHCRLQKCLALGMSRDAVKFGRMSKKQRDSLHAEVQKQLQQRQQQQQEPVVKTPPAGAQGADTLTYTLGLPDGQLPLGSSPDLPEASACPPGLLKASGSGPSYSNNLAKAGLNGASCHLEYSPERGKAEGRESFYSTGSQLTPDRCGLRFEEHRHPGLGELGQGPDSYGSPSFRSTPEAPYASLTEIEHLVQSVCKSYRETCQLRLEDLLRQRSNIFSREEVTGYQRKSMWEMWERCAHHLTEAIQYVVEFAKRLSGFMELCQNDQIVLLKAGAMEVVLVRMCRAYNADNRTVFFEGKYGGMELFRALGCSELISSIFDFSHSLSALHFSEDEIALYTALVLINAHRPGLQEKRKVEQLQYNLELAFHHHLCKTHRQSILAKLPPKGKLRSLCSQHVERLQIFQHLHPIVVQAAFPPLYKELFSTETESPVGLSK
The experiment in a line: Jurkat reporter test (human IL-17 ROR response element luciferase, RORγt vector). It counts as cell-based. As to conditions: test compound 3 μM, Jurkat cells; read-out: Luminescence level inhibitory rate at test compound 3 μM (%). Put shortly: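 Jurkat cells were electroporated (1350 V, 10 ms, 3 pulses) with reporter constructs, then cultured overnight with compound in RPMI containing 10% lipid-reduced FCS, 10 mM HEPES pH 7.5 and 5 μM lovastatin. Luciferase was quantified by Bright-Glo luminescence after 10 min at room temperature.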

The target in experiment [2] is T1, RORγt. The experiment in a line: Cofactor recruitment test (Alpha Screen, biotinylated SRC-1 peptide). The class given is biochemical. As to conditions: read-out: Signal value inhibitory rate at test compound 1 μM (%). The protocol: Cofactor Recruitment Test
Cofactor recruitment test was performed by Alpha Screen (Histidine Detection Kit, PerkinElmer) method. First, a test compound was diluted with an assay buffer (50 mM Tris-HCl (pH 7.5), 50 mM KCl, 1 mM DTT, 0.1% BSA) and added to a 384 well plate by 5 μL. […] The mixture was stood in a dark place for 1 hr, and the signal value was measured by Envision (PerkinElmer).

Experiment [3] concerns the target T1, RORγt. The experiment in a line: RORγt binding test using fluorescent-labeled synthetic ligand (TR-FRET). To be noted: read-out: Binding inhibitory rate of fluorescent-labeled synthetic ligand to RORγt at test compound 1 μM (%). An outline of the steps:
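His-tagged RORγt (diluted to 240 nM) with compound, then fluorescent synthetic ligand (diluted to 12 μM), 20 min at room temperature, followed by Tb anti-His antibody (diluted to 8 nM), 20 min.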

Experiment [4] has as its target T1, RORγt. The experiment in a line: RORγt binding test using fluorescent-labeled cholesterol (TR-FRET). As to conditions: read-out: Binding inhibitory rate of fluorescent-labeled cholesterol to RORγt at test compound 1 μM (%). Put shortly:
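TR-FRET displacement with His-tagged RORγt, BODIPY-cholesterol and Tb-anti-His antibody in Tris-HCl pH 7.5, 100 mM NaCl, 1 mM DTT, 0.1% BSA. Compound, RORγt and labelled cholesterol were incubated 20 min at RT, then antibody was added for another 20 min.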

SMILES strings stand for the structures.

Consider `COc1ccc2c(c1)CCN(C(=O)CCCC(=O)O)[C@H]2C(=O)Nc1cc(F)c(C(C)(C)C)c(F)c1` [Example 109, 5-((1R)-1-((4-tert-butyl-3,5-difluorophenyl)carbamoyl)-6-methoxy-3,4-dihydroisoquinolin-2(1H)-yl)-5-oxopentanoic acid], for which, in the experiment with IL-17A gene expression, the inhibition in vivo at 30 mg/kg was found to be 96%.

For the molecule `COc1ccc2c(n1)CCN(C(=O)CCCC(=O)O)[C@H]2C(=O)Nc1cc(F)c([Si](C)(C)C)c(F)c1` [Example 125, 5-((5R)-5-((3,5-difluoro-4-(trimethylsilyl)phenyl)carbamoyl)-2-methoxy-7,8-dihydro-1,6-naphthyridin-6(5H)-yl)-5-oxopentanoic acid], the inhibition in vivo at 30 mg/kg with IL-17A gene expression worked out at 89%.

Regarding `CCOc1ccc2c(c1)CCN(C(=O)c1cc(O)no1)[C@H]2C(=O)Nc1cc(F)c(C(C)(C)COCC(F)F)c(F)c1` [Example 154, (1R)-N-(4-(1-(2,2-difluoroethoxy)-2-methylpropan-2-yl)-3,5-difluorophenyl)-6-ethoxy-2-((3-hydroxy-1,2-oxazol-5-yl)carbonyl)-1,2,3,4-tetrahydroisoquinoline-1-carboxamide], the inhibition at 3 µM at RORγt [1] was found to be 98%. Also, the figures for the inhibition at 1 µM at RORγt [2], on RORγt [3] and at RORγt [4] were 85%, 102% and 101%, respectively.

For `CCOc1ccc2c(c1)CCN(C(=O)Cc1cc(O)no1)[C@H]2C(=O)Nc1cc(F)c(C(C)(C)COCC(F)F)c(F)c1` [Example 155, (1R)-N-(4-(1-(2,2-difluoroethoxy)-2-methylpropan-2-yl)-3,5-difluorophenyl)-6-ethoxy-2-((3-hydroxy-1,2-oxazol-5-yl)acetyl)-1,2,3,4-tetrahydroisoquinoline-1-carboxamide], the inhibition at 3 µM at RORγt [1] was 99%. The inhibition at 1 µM at RORγt [2] was found to be 84%; on RORγt [3], 101%; at RORγt [4] it was 101%.

For `COc1ccc2c(c1)CCN(C(=O)Cc1cc(O)no1)[C@H]2C(=O)Nc1cc(F)c(C(C)(C)COCC2CC2)c(F)c1` [Example 157, (1R)-N-(4-(1-(cyclopropylmethoxy)-2-methylpropan-2-yl)-3,5-difluorophenyl)-2-((3-hydroxy-1,2-oxazol-5-yl)acetyl)-6-methoxy-1,2,3,4-tetrahydroisoquinoline-1-carboxamide], the inhibition at 3 µM at RORγt [1] came to 94%. Further, the inhibition at 1 µM on RORγt [2] amounted to 74%; at RORγt [3], 102%; on RORγt [4] it was 99%.

In the case of `COc1ccc2c(c1)CCN(C(=O)Cc1cc(O)no1)[C@H]2C(=O)Nc1cc(F)c(C(C)(C)COCC(F)F)c(F)c1` [Example 159, (1R)-N-(4-(1-(2,2-difluoroethoxy)-2-methylpropan-2-yl)-3,5-difluorophenyl)-2-((3-hydroxy-1,2-oxazol-5-yl)acetyl)-6-methoxy-1,2,3,4-tetrahydroisoquinoline-1-carboxamide], the inhibition at 3 µM at RORγt [1] was found to be 97%. The results for the inhibition at 1 µM at RORγt [2], at RORγt [3] and on RORγt [4] were 80%, 101% and 100%, respectively.

In the case of `CCOc1ccc2c(c1)CCN(C(=O)c1cc(O)no1)[C@H]2C(=O)Nc1cc(F)c(C(C)(C)COC)c(F)c1` [Example 163, (1R)-N-(3,5-difluoro-4-(1-methoxy-2-methylpropan-2-yl)phenyl)-6-ethoxy-2-((3-hydroxy-1,2-oxazol-5-yl)carbonyl)-1,2,3,4-tetrahydroisoquinoline-1-carboxamide], the inhibition at 3 µM on RORγt [1] stood at 101%. Also, the inhibition at 1 µM at RORγt [2] came out at 97%; at RORγt [3], 102%; on RORγt [4] it was 100%.

For the molecule `CCOCC(C)(C)c1c(F)cc(NC(=O)[C@H]2c3ccc(OCC)cc3CCN2C(=O)CCCC(=O)O)cc1F` [Example 166, 5-((1R)-6-ethoxy-1-((4-(1-ethoxy-2-methylpropan-2-yl)-3,5-difluorophenyl)carbamoyl)-3,4-dihydroisoquinolin-2(1H)-yl)-5-oxopentanoic acid], the inhibition at 3 µM on RORγt [1] was determined as 99%. Besides, the inhibition at 1 µM at RORγt [2] came out at 86%; at RORγt [3] it was 102%; on RORγt [4], 100%.

With `CCOCC(C)(C)c1c(F)cc(NC(=O)[C@H]2c3ccc(OCC)cc3CCN2C(=O)c2cc(O)no2)cc1F` [Example 167, (1R)-6-ethoxy-N-(4-(1-ethoxy-2-methylpropan-2-yl)-3,5-difluorophenyl)-2-((3-hydroxy-1,2-oxazol-5-yl)carbonyl)-1,2,3,4-tetrahydroisoquinoline-1-carboxamide], the inhibition at 3 µM at RORγt [1] amounted to 97%. Further, the values for the inhibition at 1 µM on RORγt [2], on RORγt [3] and at RORγt [4] were 85%, 102% and 101%, respectively.

As to `COCc1ccc2c(c1)CCN(C(=O)Cc1cc(O)no1)[C@H]2C(=O)Nc1cc(F)c2c(c1)CCC2(C)C` [Example 169, (1R)-N-(7-fluoro-1,1-dimethyl-2,3-dihydro-1H-inden-5-yl)-2-((3-hydroxy-1,2-oxazol-5-yl)acetyl)-6-(methoxymethyl)-1,2,3,4-tetrahydroisoquinoline-1-carboxamide], the inhibition at 3 µM at RORγt [1] was 102%. Further, the figures for the inhibition at 1 µM on RORγt [2], at RORγt [3] and on RORγt [4] were 93%, 102% and 102%, respectively.

With `CCOCC(C)(C)c1c(F)cc(NC(=O)[C@H]2c3ccc(OC)cc3CCN2C(=O)Cc2cc(O)no2)cc1F` [Example 170, (1R)-N-(4-(1-ethoxy-2-methylpropan-2-yl)-3,5-difluorophenyl)-2-((3-hydroxy-1,2-oxazol-5-yl)acetyl)-6-methoxy-1,2,3,4-tetrahydroisoquinoline-1-carboxamide], the inhibition at 3 µM at RORγt [1] is 97%. The inhibition at 1 µM on RORγt [2] worked out at 81%; at RORγt [3], 102%; at RORγt [4], 102%.

For the molecule `CCOCC(C)(C)c1c(F)cc(NC(=O)[C@H]2c3ccc(OC)cc3CCN2C(=O)c2cc(O)no2)cc1F` [Example 171, (1R)-N-(4-(1-ethoxy-2-methylpropan-2-yl)-3,5-difluorophenyl)-2-((3-hydroxy-1,2-oxazol-5-yl)carbonyl)-6-methoxy-1,2,3,4-tetrahydroisoquinoline-1-carboxamide], on RORγt [1], the inhibition at 3 µM was determined as 96%. In addition, the inhibition at 1 µM was found to be 82% on RORγt [2], 101% on RORγt [3] and 100% at RORγt [4].

Turning to `CCOCC(C)(C)c1c(F)cc(NC(=O)[C@H]2c3ccc(OC)cc3CCN2C(=O)CCCC(=O)O)cc1F` [Example 172, 5-((1R)-1-((4-(1-ethoxy-2-methylpropan-2-yl)-3,5-difluorophenyl)carbamoyl)-6-methoxy-3,4-dihydroisoquinolin-2(1H)-yl)-5-oxopentanoic acid], the inhibition at 3 µM at RORγt [1] is 97%. Besides, the inhibition at 1 µM at RORγt [2] amounted to 82%; at RORγt [3], 101%; on RORγt [4], 101%.

The values above are taken from patent US10053468B2, “Heterocyclic compound” (TAKEDA PHARMACEUTICAL COMPANY LIMITED, priority 2013, dated 2018).
